Test results reported in US20140275257A1, “N-ACETYL CYSTEINE COMPOSITIONS IN THE TREATMENT OF SYSTEMIC LUPUS ERYTHEMATOSUS” (Foundation for the State University of New York, priority 2013, published 2014).

Experiments:
[1] = tested on: anti-double-stranded DNA, C3, and C4; test: Lupus-relevant laboratory tests (anti-double-stranded DNA, C3, C4); type: in vivo, human
Source text: Routine blood tests included complete blood count, liver and kidney function test, urinalysis and lupus-relevant laboratory tests, such as anti-double-stranded DNA, C3, and C4.

SLE patients = test: Tolerance and safety, double-blind placebo-controlled pilot study of NAC in SLE; type: in vivo, human
Protocol: 36 patients with stable disease were enrolled in a double-blind placebo-controlled treatment trial with N-acetylcysteine (NAC; FDA approval, IND No: 101,320; clinicaltrials.gov identifier: NCT00775476). SLE patients were randomized to receive either placebo (placebo group—dextrose) or NAC (test group) in one of three treatment arms of increasing doses for three months: 600 mg twice daily (Dose 1), 1,200 mg twice daily (Dose 2), or 2,400 mg twice daily (Dose 3). 12 patients were enrolled per treatment arm, 9 received NAC while 3 received placebo.
At each visit, patients were specifically asked about common side effects (nausea, bloating, bad taste) seen in prior trials These side effects were reviewed by the Data Safety and Monitoring Board (DSMB) bi-annually. Tolerance and safety were primary clinical outcomes.
All 24 patients in Dosing Group 1 (1.2 g/day NAC) and 2 (2.4 g/day NAC) completed the treatment and none of the […] in Dosing Group 1 (1.2 g/day NAC) or 2 (2.4 g/day NAC) reported unpleasant smell or taste. Three of 12 patients in Dosing Group 3 (4.8 g/day) dropped out (Table 6) due to 1) heartburn after 26 days, which resolved after discontinuing the capsules; 2) recurrent nausea and one-time vomiting after 46 days, with resolution after discontinuing the capsules; 3) headaches, which were eliminated by halving the dose to 2.4 g/day. Since all three patients reporting intolerance received NAC, in accordance with the DSMP, no higher dose was initiated. Following the last Dosing Group 3 visit, the study was un-blinded.

DN T cells = test: Spontaneous and CD3/CD28-induced apoptosis of T cells (annexin V/PrI flow cytometry); type: in vivo, human; conditions: NAC-treated patients; for CD3/CD28-induced apoptosis: baseline 16.0±1.6%
Source text: Cell viability was monitored with annexin V conjugated to fluorescein isothiocyanate (annexin V-FITC conjugate), annexin V conjugated to phycoerythrin (annexin V-PE conjugate), or annexin V conjugated to fluorochrome Cy5 (Annexin V-Cy5 conjugate) matched with emission spectra of propidium iodide (PrI) to detect Annexin V+/PrI− apoptotic cells. Mitochondrial transmembrane potential (ΔΨm) was monitored with mitochondrial potentiometric dyes such as 3,3′-dihexyloxacarbocyanine iodide ((DiOC6), using an excitation wavelength of […] and emission at 488 nm, recorded at 525 nm in the FL-1 (green fluorescence) channel); and tetramethylrhodamine, methyl ester ((TMRM), using an excitation wavelength of […], and emission at 543 nm, recorded at 567 nm in the FL-2 (yellow/orange fluorescence) channel), potential-insensitive mitochondrial dyes such as MitoTracker Green-FM (MTG, 100 nM; excitation: 490 nm, emission: 516 nm recorded in FL-1) or nonyl acridine orange (NAO, 50 nM; excitation: 490 nm, emission: 540 nm recorded in FL-1), superoxide sensing hydroethidine (HE, 1 μM) and H2O2-sensing dichlorofluorescein diacetate (DCF-DA, 1 μM), nitric oxide sensor 4-amino-5-methylamino-2′,7′-difluoroflourescein diacetate (DAF-FM, 1 μM, excitation: 495, emission: 515 nm recorded in FL-1), or cytosolic probes (Fluo-3, 1 μM, excitation: 506 nm, emission: 526 nm recorded in FL-1) and mitochondrial Ca^2+-sensitive fluorescent probes (Rhod-2, 1 μM), respectively.
NO production (FIG. 3D: DAF-FM fluorescence), and mitochondrial mass were measured in T cell subsets following CD3/CD28 stimulation for 16 h (FIG. 3E: NAO fluorescence). FIG. 3F: Spontaneous apoptosis rate was enumerated by the percentage of Ann V+/PrI− T cells after culture for 16 h. FIG. 3G: Activation-induced apoptosis was assessed following CD3/CD28 co-stimulation for 16 h. Visits: visit 1, before 1st NAC dose; visit 2, after 1-month treatment; visit 3, after 2-month treatment; visit 4, after 3-month treatment; visit 5, after 1-month washout.
Unstimulated cells and cells stimulated with CD3/CD28 for 16 h were examined and cell death pathway selection in T cells was measured by concurrent staining with annexin V-Alexa 647 and propidium iodide (PrI) as well as cell type-specific antigens. T-cell subsets were analyzed by staining with antibodies to CD4, CD8, and CD25. B cells were identified by CD 19 staining

GSH in whole blood = test: HPLC assay of GSH in whole blood of SLE patients; type: in vivo, human; conditions: after 1 and 2 months of NAC treatment
Protocol: Reduced glutathione (GSH) was measured by reverse phase ion-exchange HPLC using UV detection at 365 nm, as described in Gergely, P. J. et al., “Mitochondrial hyperpolarization and ATP depletion in patients with systemic lupus erythematosus,” Arth. Rheum., 46: 175-190 (2002); and Hanczko, R. et al., “Prevention of hepatocarcinogenesis and acetaminophen-induced liver failure in transaldolase-deficient mice by N-acetylcysteine,” J. Clin. Invest., 119: 1546-1557 (2009). The disclosures of each of these references are incorporated by reference herein in their entirety.
GSH was measured in whole blood and peripheral blood lymphocytes (PBL) before (visit 1; 0 h) and after the first NAC/placebo dose (visit 1; 3 h and 6 h) and upon each monthly follow-up visit (visits 2-4: between 9-11 am after having taken the last NAC/placebo capsule 8 pm the night before), and after 1 month wash-out (visit 5). HPLC analysis required ˜0.25 ml of whole blood and 5×10^6 PBL which were obtained from a total of 10 ml of blood collected at each time point.

[2] = Noszal et al. (2000); cited from earlier work

For `CC(=O)N[C@@H](CS)C(=O)O` [NAC, N-acetyl-L-cysteine], the C3 ([1]; NAC-treated patients) was “not affected”, the C4 ([1]; NAC-treated patients) was “not affected” and the Anti-DNA ([1]; all NAC doses considered together, after 1 month, baseline 78.9±45.2 IU/ml, p=0.049) was 19.5±6.0 IU/ml. For the same compound, the “patients reporting unpleasant smell or taste” value (SLE patients; Dosing Group 1 (1.2 g/day NAC) or 2 (2.4 g/day NAC)) was “none”, the “patients dropped out (heartburn; recurrent nausea and vomiting; headaches)” value (SLE patients; Dosing Group 3 (4.8 g/day), all three received NAC) was “Three of 12” and the safety and tolerance (SLE patients; all SLE patients, up to 2.4 g/day) was “safe and tolerated”. The “patients with reversible nausea” value (SLE patients; patients receiving 4.8 g/day) was 33%, the CD3/CD28-induced apoptosis (DN T cells; after 2 months, p=0.0006) was 25.4±2.6% and the CD3/CD28-induced apoptosis (DN T cells; after 3 months, p=0.0004) was 23.5±2.1%. The “Spontaneous apoptosis rate of DN T cells” value (DN T cells; after 4 months, baseline 10.1±1.3%, p=0.035) was 15.2±2.3%, the CD3/CD28-induced apoptosis (DN T cells; after 4 months, p=0.0313) was 22.7±2.6% and the “GSH in whole blood” value (GSH in whole blood) was “increased”. For the same compound, the “half-cell potential, NAC thiol/disulfide pair” value [2] was “about +63 mV”.
